{"source": "paper PMC7297817", "about": "“Pharmacological Characterization of a Betaine/GABA Transporter 1 (BGT1) Inhibitor Displaying an Unusual Biphasic Inhibition Profile and Anti-seizure Effects” (Neurochemical Research, 2020)", "key": {"[1]": {"system": "tsA201 cells transiently expressing hBGT1", "test": "Fluo-4 Ca2+-assay in tsA201 cells transiently expressing hBGT1", "type": "cell-based, human", "details": "within the 3 min timeframe; blocked by BAPTA/AM", "procedure": "Emission was recorded for 20 s. before adding the compounds (at 4 × concentrations) to the HBSS-HEPES buffer to determine the baseline. […] Data presented is the pooled data of at least three independent experiments with three technical replicates. Changes in fluorescence units (ΔFU) were determined as the maximum fluorescent signal within the 190 s minus the average of the baseline."}, "AGS Frings mice": {"system": "AGS Frings mice", "test": "Audiogenic induced seizure test", "type": "in vivo, mouse", "excerpt": "Male audiogenic-susceptible (AGS) Frings mice were obtained from an in-house breeding facility at the University of Utah (Salt Lake City, UT, USA). Male CF-1 mice for the maximal electroshock (MES) test and the subcutaneous pentylenetetrazol (s.c.PTZ) seizure threshold test were purchased from Charles River (Kingston, WA, USA). All mice were housed in a temperature, humidity, and light (on at 6:00 AM) controlled facility at the University of Utah with access to ad libitum food and water except during testing. All procedures were carried out at the University of Utah in concordance with the National Institutes of Health Guidelines for the Care and Use of Laboratory Animals and under approval from the University of Utah’s Institutional Animal Care and Use Committee. The mice were euthanized in accordance with Public Health Service policies on the humane care of laboratory animals. […] The seizures were induced as previously described. In brief, Frings mice were placed in a Plexiglas cylinder (diameter 15 cm, height 18 cm) connected to an audio transducer and exposed to a sound stimulus of 110 decibel (11 kHz) for a duration of 20 s. […] Probit analysis was used to analyse the efficacy and tolerability results obtained from the dose–response studies and to calculate the median effective (ED50) dose, the median toxic dose (TD50), and the 95% confidence interval."}, "CF-1 mice [2]": {"system": "CF-1 mice", "test": "Maximal electroshock (MES) test", "type": "in vivo, mouse", "details": "for #Protected/#Tested: 15 min", "excerpt": "Male audiogenic-susceptible (AGS) Frings mice were obtained from an in-house breeding facility at the University of Utah (Salt Lake City, UT, USA). Male CF-1 mice for the maximal electroshock (MES) test and the subcutaneous pentylenetetrazol (s.c.PTZ) seizure threshold test were purchased from Charles River (Kingston, WA, USA). All mice were housed in a temperature, humidity, and light (on at 6:00 AM) controlled facility at the University of Utah with access to ad libitum food and water except during testing. All procedures were carried out at the University of Utah in concordance with the National Institutes of Health Guidelines for the Care and Use of Laboratory Animals and under approval from the University of Utah’s Institutional Animal Care and Use Committee. The mice were euthanized in accordance with Public Health Service policies on the humane care of laboratory animals. […] This is a model of generalised tonic–clonic seizures, and was conducted as described previously. In brief, a drop of anaesthetic/electrolyte solution (0.5% tetracaine hydrochloride in 0.9% saline) was applied to the cornea of each animal prior to placement of the silver-coated corneal electrodes. An alternating current of 50 mA (60 Hz) was delivered for 0.2 s to the cornea of the mouse using a Woodbury–Davenport stimulator. The supramaximal current applied to the cornea was sufficient to induce maximal tonic extension seizures in all non-treated mice. […] Those mice not displaying full hind limb tonic extension seizures were considered protected. Probit analysis was used to analyse the efficacy and tolerability results obtained from the dose–response studies and to calculate the median effective (ED50) dose, the median toxic dose (TD50), and the 95% confidence interval."}, "CF-1 mice [3]": {"system": "CF-1 mice", "test": "s.c.PTZ seizure threshold test", "type": "in vivo, mouse", "details": "150 mg/kg i.p.", "excerpt": "Male audiogenic-susceptible (AGS) Frings mice were obtained from an in-house breeding facility at the University of Utah (Salt Lake City, UT, USA). Male CF-1 mice for the maximal electroshock (MES) test and the subcutaneous pentylenetetrazol (s.c.PTZ) seizure threshold test were purchased from Charles River (Kingston, WA, USA). All mice were housed in a temperature, humidity, and light (on at 6:00 AM) controlled facility at the University of Utah with access to ad libitum food and water except during testing. All procedures were carried out at the University of Utah in concordance with the National Institutes of Health Guidelines for the Care and Use of Laboratory Animals and under approval from the University of Utah’s Institutional Animal Care and Use Committee. The mice were euthanized in accordance with Public Health Service policies on the humane care of laboratory animals. SBV2-114 was tested for its ability to prevent a minimal clonic seizure in the s.c.PTZ seizure test, which is a test of generalized myoclonic seizures. […] At the TPE, mice were challenged with a s.c. dose of PTZ (85 mg/kg) and observed for 30 min for the presence or absence of a minimal clonic seizure characterized by minimal forelimb clonus and/or vibrissae twitching. Mice not displaying this phenotypic behaviour were considered protected."}, "5-HT3": {"target": "T1, 5-HT3 (Homo sapiens, UniProt P46098)", "T1 construct": "purchased NIMH Psychoactive Drug Screening Program (PDSP)", "T1 sequence (P46098 24-478)": "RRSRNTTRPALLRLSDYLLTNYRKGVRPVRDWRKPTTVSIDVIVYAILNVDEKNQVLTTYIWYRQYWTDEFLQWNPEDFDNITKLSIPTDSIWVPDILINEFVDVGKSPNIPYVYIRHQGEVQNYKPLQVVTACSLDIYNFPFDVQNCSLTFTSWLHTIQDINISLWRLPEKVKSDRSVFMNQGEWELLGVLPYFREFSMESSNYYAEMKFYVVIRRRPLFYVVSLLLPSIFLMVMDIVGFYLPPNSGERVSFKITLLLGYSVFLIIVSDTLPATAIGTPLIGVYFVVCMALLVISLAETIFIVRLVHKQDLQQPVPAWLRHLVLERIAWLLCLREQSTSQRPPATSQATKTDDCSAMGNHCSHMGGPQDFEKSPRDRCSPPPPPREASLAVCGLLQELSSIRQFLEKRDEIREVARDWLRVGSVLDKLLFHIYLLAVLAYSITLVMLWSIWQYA", "test": "NIMH PDSP radioligand binding, 5-HT3", "details": "radioligand [3H]LY278584, n=4"}, "D2": {"target": "T2, D2 (Homo sapiens, UniProt P14416)", "T2 construct": "purchased NIMH Psychoactive Drug Screening Program (PDSP)", "T2 sequence (P14416 whole entry)": "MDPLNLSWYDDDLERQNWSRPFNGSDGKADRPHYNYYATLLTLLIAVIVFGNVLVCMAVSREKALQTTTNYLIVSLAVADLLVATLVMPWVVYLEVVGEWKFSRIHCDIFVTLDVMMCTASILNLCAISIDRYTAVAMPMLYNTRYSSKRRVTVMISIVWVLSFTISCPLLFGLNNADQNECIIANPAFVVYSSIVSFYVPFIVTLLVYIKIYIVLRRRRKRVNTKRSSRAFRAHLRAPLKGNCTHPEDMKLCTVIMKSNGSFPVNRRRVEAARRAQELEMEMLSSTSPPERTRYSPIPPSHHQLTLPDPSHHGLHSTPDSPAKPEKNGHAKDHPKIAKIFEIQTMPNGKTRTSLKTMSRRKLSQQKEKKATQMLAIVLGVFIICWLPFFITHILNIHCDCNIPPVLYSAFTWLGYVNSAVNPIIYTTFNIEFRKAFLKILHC", "test": "NIMH PDSP radioligand binding, D2", "details": "radioligand [3H]N-methylspiperone, n=4"}, "D5": {"target": "T3, D5 (Homo sapiens, UniProt P21918)", "T3 construct": "NIMH PDSP (screening service)", "T3 sequence (P21918 whole entry)": "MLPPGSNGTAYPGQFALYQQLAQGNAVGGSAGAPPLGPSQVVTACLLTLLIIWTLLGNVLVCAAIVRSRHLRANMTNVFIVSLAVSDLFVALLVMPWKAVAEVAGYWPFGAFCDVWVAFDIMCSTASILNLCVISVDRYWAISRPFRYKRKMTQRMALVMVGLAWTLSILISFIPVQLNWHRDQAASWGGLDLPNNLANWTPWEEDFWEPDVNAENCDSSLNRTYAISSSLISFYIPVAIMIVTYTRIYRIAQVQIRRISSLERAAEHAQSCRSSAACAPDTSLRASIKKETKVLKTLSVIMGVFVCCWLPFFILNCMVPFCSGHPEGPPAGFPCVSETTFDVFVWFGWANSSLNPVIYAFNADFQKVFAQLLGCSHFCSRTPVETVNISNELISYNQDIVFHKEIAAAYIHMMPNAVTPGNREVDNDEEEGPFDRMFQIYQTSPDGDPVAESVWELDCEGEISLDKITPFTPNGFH", "test": "NIMH PDSP radioligand binding, D5", "details": "radioligand [3H]SCH23390"}, "Sigma2": {"system": "Sigma2", "test": "NIMH PDSP radioligand binding, Sigma2", "details": "10 μM; radioligand [3H]DTG; n=4", "procedure": "IC50 values in μM (Ki μM)^a. The targets in bold were inhibited by >35% at 10 μM."}, "NET": {"target": "T4, NET (Homo sapiens, UniProt P23975)", "T4 construct": "purchased NIMH Psychoactive Drug Screening Program (PDSP)", "T4 sequence (P23975 whole entry)": "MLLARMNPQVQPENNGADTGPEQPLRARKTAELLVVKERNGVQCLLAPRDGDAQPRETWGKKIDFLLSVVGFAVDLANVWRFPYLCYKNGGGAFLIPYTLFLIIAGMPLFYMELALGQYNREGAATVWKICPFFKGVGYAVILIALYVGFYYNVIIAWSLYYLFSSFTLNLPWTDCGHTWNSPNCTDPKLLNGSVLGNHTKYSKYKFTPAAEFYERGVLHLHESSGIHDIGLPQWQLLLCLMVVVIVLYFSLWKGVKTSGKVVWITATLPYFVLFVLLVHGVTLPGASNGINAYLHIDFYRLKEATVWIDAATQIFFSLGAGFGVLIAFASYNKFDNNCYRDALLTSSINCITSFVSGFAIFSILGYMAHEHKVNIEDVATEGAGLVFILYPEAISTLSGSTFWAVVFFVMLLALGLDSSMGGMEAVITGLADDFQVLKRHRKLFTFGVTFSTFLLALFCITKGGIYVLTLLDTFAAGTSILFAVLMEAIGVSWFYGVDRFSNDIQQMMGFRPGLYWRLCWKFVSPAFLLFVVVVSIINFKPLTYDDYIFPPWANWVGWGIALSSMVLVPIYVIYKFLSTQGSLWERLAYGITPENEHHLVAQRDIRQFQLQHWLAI", "test": "NIMH PDSP radioligand binding, NET", "details": "radioligand [3H]nisoxetine, n=4"}}, "data": [{"smiles": "Cc1ccsc1C(=CCCN(C)[C@H]1CCCC[C@H]1C(=O)O)c1sccc1C", "note": "[SBV2-114, (1R,2S)-2-((4,4-bis(3-methylthiophen-2-yl)but-3-en-yl)(methyl)amino)cyclohexanecarboxylic acid]", "values": [{"measurement": "intracellular Ca2+ increase", "setting": "[1]", "value": "triggered an intracellular Ca^2+ increase at 200 μM and 500 μM"}, {"measurement": "#Protected/#Tested", "setting": "AGS Frings mice; 50 mg/kg i.p., 15 min", "value": "3/4"}, {"measurement": "#Protected/#Tested", "setting": "AGS Frings mice; 50 mg/kg i.p., 30 min", "value": "2/4"}, {"measurement": "#Protected/#Tested", "setting": "AGS Frings mice; 50 mg/kg i.p., 60 min", "value": "1/4"}, {"measurement": "#Protected/#Tested", "setting": "AGS Frings mice; 50 mg/kg i.p., 120 min", "value": "0/4"}, {"measurement": "#Protected/#Tested", "setting": "AGS Frings mice; 120 mg/kg i.p., 30 min", "value": "4/4"}, {"measurement": "#Protected/#Tested", "setting": "AGS Frings mice; 120 mg/kg i.p., 60 min", "value": "3/4"}, {"measurement": "#Protected/#Tested", "setting": "AGS Frings mice; 120 mg/kg i.p., 120 min", "value": "2/4"}, {"measurement": "#Protected/#Tested", "setting": "AGS Frings mice; 120 mg/kg i.p., 240 min", "value": "1/4"}, {"measurement": "brain permeance", "setting": "AGS Frings mice; concluded from seizure protection after i.p. dosing", "value": "brain-permeant"}, {"measurement": "time-to peak (TPE)", "setting": "AGS Frings mice; i.p., Frings mice, a faster TPE cannot be excluded", "value": 15, "unit": "min"}, {"measurement": "#Protected/#Tested", "setting": "CF-1 mice [2]; 50 mg/kg i.p.", "value": "0/3"}, {"measurement": "#Protected/#Tested", "setting": "CF-1 mice [2]; 100 mg/kg i.p.", "value": "0/4"}, {"measurement": "#Protected/#Tested", "setting": "CF-1 mice [2]; 125 mg/kg i.p.", "value": "2/7"}, {"measurement": "#Protected/#Tested", "setting": "CF-1 mice [2]; 150 mg/kg i.p.", "value": "4/6"}, {"measurement": "#Protected/#Tested", "setting": "CF-1 mice [2]; 200 mg/kg i.p.", "value": "4/4"}, {"measurement": "ED50", "setting": "CF-1 mice [2]; Mus musculus, ip", "value": 139, "unit": "mg/kg"}, {"measurement": "effect on s.c.PTZ-induced seizures", "setting": "CF-1 mice [3]", "value": "did not block s.c.PTZ-induced seizures"}, {"measurement": "#Protected/#Tested", "setting": "CF-1 mice [3]; 30 min, PTZ 85 mg/kg s.c.", "value": "0/8"}, {"measurement": "inhibition at 10 µM", "setting": "5-HT3", "value": -3, "unit": "%"}, {"measurement": "inhibition at 10 µM", "setting": "D2", "value": 12.3, "unit": "%"}, {"measurement": "inhibition at 10 µM", "setting": "D5; 10 μM, n=4", "value": 51.7, "unit": "%"}, {"measurement": "Ki", "setting": "D5; full curve, printed with 'ave'", "value": 10, "unit": "µM"}, {"measurement": "% inhibition", "setting": "Sigma2", "value": 48.3, "unit": "%"}, {"measurement": "inhibition at 10 µM", "setting": "NET", "value": 0.1, "unit": "%"}]}]}
